US20230271941A1, “COMPOUNDS AND COMPOSITIONS FOR TREATING CONDITIONS ASSOCIATED WITH STING ACTIVITY” (IFM Due, Inc., priority 2020, published 2023)

target: T1, hSTING (Homo sapiens, UniProt Q86WV6, G230A/H232R/R293Q/R71H); assay: STING reporter assay: THP1-Dual KO-IFNAR2 cells stimulated with 2′3′cGAMP, luciferase reporter activity; format: cell-based; details: 15 μM 2′3′cGAMP transfected with Lipofectamine 2000, 24 h, luciferase reporter (QUANTI-Luc)
T1 construct: host or cells: THP1-Dual KO-IFNAR2 cells
T1 sequence (Q86WV6 whole entry R71H/G230A/H232R/R293Q): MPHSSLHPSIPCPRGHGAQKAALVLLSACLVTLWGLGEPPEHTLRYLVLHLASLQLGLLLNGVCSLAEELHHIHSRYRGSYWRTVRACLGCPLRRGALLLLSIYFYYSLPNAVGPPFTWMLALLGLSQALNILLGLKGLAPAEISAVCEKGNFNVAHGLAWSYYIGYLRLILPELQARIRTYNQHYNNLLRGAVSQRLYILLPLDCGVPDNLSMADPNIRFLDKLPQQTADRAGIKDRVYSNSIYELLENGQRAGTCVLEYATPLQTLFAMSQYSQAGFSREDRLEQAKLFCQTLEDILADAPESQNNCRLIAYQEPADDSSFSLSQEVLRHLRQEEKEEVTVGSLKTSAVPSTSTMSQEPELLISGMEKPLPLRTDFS
Protocol: STING pathway activation by the compounds described herein was measured using THP1-Dual™ cells (KO-IFNAR2).
THP1-Dual™ KO-IFNAR2 Cells (obtained from invivogen) were maintained in RPMI, 10% FCS, 5 ml P/S, 2 mM L-glut, 10 mM Hepes, and 1 mM sodium pyruvate. Compounds were spotted in empty 384 well tissue culture plates (Greiner 781182) by Echo for a final concentration of 0.0017-100 μM. Cells were plated into the TC plates at 40 μL per well, 2×10E6 cells/mL. For activation with STING ligand, 2′3′cGAMP (MW 718.38, obtained from Invivogen), was prepared in Optimem media.
The following solutions were prepared for each 1×384 plate: • Solution A: 2 mL Optimem with one of the following stimuli: • 60 μL of 10 mM 2′3′cGAMP→150 μM stock • Solution B: 2 mL Optimem with 60 μL Lipofectamine 2000→Incubate 5 min at RT
2 mL of solution A and 2 ml Solution B was mixed and incubated for 20 min at room temperature (RT). 20 μL of transfection solution (A+B) was added on top of the plated cells, with a final 2′3′cGAMP concentration of 15 μM. The plates were then centrifuged immediately at 340 g for 1 minute, after which they were incubated at 37° C., 5% CO2, >98% humidity for 24 h. Luciferase reporter activity was then measured. EC50 values were calculated by using standard methods known in the art.
Luciferase reporter assay: 10 μL of supernatant from the assay was transferred to white 384-plate with flat bottom and squared wells. One pouch of QUANTI-Luc™ Plus was dissolved in 25 mL of water. 100 μL of QLC Stabilizer per 25 mL of QUANTI-Luc™Plus solution was added. 50 μL of QUANTI-Luc™ Plus/QLC solution per well was then added. Luminescence was measured on a Platereader (e.g., Spectramax I3X (Molecular Devices GF3637001)).
Luciferase reporter activity was then measured. EC50 values were calculated by using standard methods known in the art.

| Structure (SMILES) | EC50 [nM] |
| --- | --- |
| O=C(Nc1c[nH]c2cc(F)ccc12)c1cn(Cc2ccc(C(F)(F)F)cc2)cn1 [Compound 104, N-(6-fluoro-1H-indol-3-yl)-1-(4-(trifluoromethyl)benzyl)-1H-imidazole-4-carboxamide] | 200 to 1000 |
| Cc1cc(Cn2cc(C(=O)Nc3c[nH]c4cc(F)c(F)cc34)cn2)cnc1OCC(F)(F)F [Compound 163, N-(5,6-difluoro-1H-indol-3-yl)-1-((5-methyl-6-(2,2,2-trifluoroethoxy)pyridin-3-yl)methyl)-1H-pyrazole-4-carboxamide] | 40 to 200 |
| Cc1cc(-c2cc(C(=O)Nc3c[nH]c4cc(F)c(F)cc34)n[nH]2)ccc1Cl [Compound 164, 5-(4-chloro-3-methylphenyl)-N-(5,6-difluoro-1H-indol-3-yl)-1H-pyrazole-3-carboxamide] | 200 to 1000 |
| CC(C)n1cc(-c2cc(F)c3[nH]cc(NC(=O)c4cnn(Cc5ccc(C(F)(F)F)cc5)c4)c3c2)cn1 [Compound 146, N-(7-fluoro-5-(1-isopropyl-1H-pyrazol-4-yl)-1H-indol-3-yl)-1-(4-(trifluoromethyl)benzyl)-1H-pyrazole-4-carboxamide] | 200 to 1000 |
| O=C(Nc1c[nH]c2cc(F)c(F)cc12)c1cc(CC2CCN(CC(F)(F)F)CC2)no1 [Compound 155, N-(5,6-difluoro-1H-indol-3-yl)-3-((1-(2,2,2-trifluoroethyl)piperidin-4-yl)methyl)isoxazole-5-carboxamide] | 40 to 200 |
| O=C(Nc1c[nH]c2cc(F)ccc12)c1cnn(Cc2ccc(C(F)(F)F)cc2)c1 [Compound 143, N-(6-fluoro-1H-indol-3-yl)-1-(4-(trifluoromethyl)benzyl)-1H-pyrazole-4-carboxamide] | 200 to 1000 |
| COc1cncc2c(NC(=O)c3cnn(Cc4ccc(C(F)(F)F)cc4)c3)c[nH]c12 [Compound 117, N-(7-methoxy-1H-pyrrolo[3,2-c]pyridin-3-yl)-1-(4-(trifluoromethyl)benzyl)-1H-pyrazole-4-carboxamide] | 5000 to 100000 |
| O=C(Nc1c[nH]c2cc(F)c(F)cc12)c1cc(-c2cccc(Cl)c2)[nH]n1 [Compound 174, 5-(3-chlorophenyl)-N-(5,6-difluoro-1H-indol-3-yl)-1H-pyrazole-3-carboxamide] | 200 to 1000 |
| O=C(Nc1c[nH]c2ccc(-c3ccc(CO)c(F)c3)cc12)c1cn(Cc2ccc(C(F)(F)F)cc2)cn1 [Compound 137, N-(5-(3-fluoro-4-(hydroxymethyl)phenyl)-1H-indol-3-yl)-1-(4-(trifluoromethyl)benzyl)-1H-imidazole-4-carboxamide] | 1000 to 5000 |
| O=C(Nc1c[nH]c2cc(F)c(Cl)cc12)c1cn(Cc2ccc(C(F)(F)F)cc2)nn1 [Compound 168, N-(5-chloro-6-fluoro-1H-indol-3-yl)-1-(4-(trifluoromethyl)benzyl)-1H-1,2,3-triazole-4-carboxamide] | 200 to 1000 |
| Cc1cc(C(=O)Nc2c[nH]c3cc(F)c(F)cc23)nn1Cc1ccc(C(F)(F)F)cc1 [Compound 114, N-(5,6-difluoro-1H-indol-3-yl)-5-methyl-1-(4-(trifluoromethyl)benzyl)-1H-pyrazole-3-carboxamide] | 200 to 1000 |
| O=C(Nc1c[nH]c2cc(Cl)c(F)cc12)c1cnn(Cc2ccc(C(F)(F)F)cc2)c1 [Compound 107, N-(6-chloro-5-fluoro-1H-indol-3-yl)-1-(4-(trifluoromethyl)benzyl)-1H-pyrazole-4-carboxamide] | 200 to 1000 |
| O=C(Nc1c[nH]c2ccc(F)cc12)c1cnn(Cc2ccc(C(F)(F)F)cc2)c1 [Compound 115, N-(5-fluoro-1H-indol-3-yl)-1-(4-(trifluoromethyl)benzyl)-1H-pyrazole-4-carboxamide] | 200 to 1000 |
| O=C(Nc1c[nH]c2cc(F)c(F)cc12)c1cnn(CC2CCC(F)(F)CC2)c1 [Compound 122, N-(5,6-difluoro-1H-indol-3-yl)-1-((4,4-difluorocyclohexyl)methyl)-1H-pyrazole-4-carboxamide] | 200 to 1000 |
| O=C(Nc1c[nH]c2cc(F)c(F)cc12)c1cc(CC2CCN(CC(F)(F)F)CC2)on1 [Compound 152, N-(5,6-difluoro-1H-indol-3-yl)-5-((1-(2,2,2-trifluoroethyl)piperidin-4-yl)methyl)isoxazole-3-carboxamide] | 200 to 1000 |
| O=C(Nc1c[nH]c2cc(F)c(Cl)cc12)c1cnn(Cc2ccc(C(F)(F)F)cc2)c1 [Compound 141, N-(5-chloro-6-fluoro-1H-indol-3-yl)-1-(4-(trifluoromethyl)benzyl)-1H-pyrazole-4-carboxamide] | 40 to 200 |
| O=C(Nc1c[nH]c2cc(F)c(F)cc12)c1cc(-c2ccccn2)on1 [Compound 109, N-(5,6-difluoro-1H-indol-3-yl)-5-(pyridin-2-yl)-1,2-oxazole-3-carboxamide] | 200 to 1000 |
| O=C(Nc1c[nH]c2c(F)cncc12)c1ccn(Cc2ccc(C(F)(F)F)cc2)n1 [Compound 131, N-(7-fluoro-1H-pyrrolo[3,2-c]pyridin-3-yl)-1-(4-(trifluoromethyl)benzyl)-1H-pyrazole-3-carboxamide] | 1000 to 5000 |
| COc1cc2[nH]cc(NC(=O)c3cnn(Cc4ccc(C(F)(F)F)cc4)c3)c2cn1 [Compound 126, N-(6-methoxy-1H-pyrrolo[3,2-c]pyridin-3-yl)-1-(4-(trifluoromethyl)benzyl)-1H-pyrazole-4-carboxamide] | 1000 to 5000 |
| O=C(Nc1c[nH]c2cnccc12)c1cnn(Cc2ccc(C(F)(F)F)cc2)c1 [Compound 144] | 5000 to 100000 |
| O=C(Nc1c[nH]c2ccccc12)c1cn(Cc2ccc(C(F)(F)F)c(Cl)c2)cn1 [Compound 136, 1-(3-chloro-4-(trifluoromethyl)benzyl)-N-(1H-indol-3-yl)-1H-imidazole-4-carboxamide] | 200 to 1000 |
| O=C(Nc1c[nH]c2cc(F)c(F)cc12)c1ccn(CCOc2cccnc2)n1 [Compound 147, N-(5,6-difluoro-1H-indol-3-yl)-1-(2-(pyridin-3-yloxy)ethyl)-1H-pyrazole-3-carboxamide] | 5000 to 100000 |

Other lines, results leading:

| EC50 [nM] | Structure (SMILES) |
| --- | --- |
| 200 to 1000 | O=C(Nc1c[nH]c2cc(F)c(F)cc12)c1csc(-c2cccc(C(F)(F)F)c2)n1 [Compound 101, N-(5,6-difluoro-1H-indol-3-yl)-2-(3-(trifluoromethyl)phenyl)thiazole-4-carboxamide] |
| 200 to 1000 | O=C(Nc1c[nH]c2cc(F)c(F)cc12)c1cc(Cc2ccc(C(F)(F)F)cc2)no1 [Compound 151, N-(5,6-difluoro-1H-indol-3-yl)-3-(4-(trifluoromethyl)benzyl)isoxazole-5-carboxamide] |
| 200 to 1000 | O=C(Nc1c[nH]c2cc(F)c(F)cc12)c1cc(-c2ccccc2)[nH]n1 [Compound 175, N-(5,6-difluoro-1H-indol-3-yl)-5-phenyl-1H-pyrazole-3-carboxamide] |
| 200 to 1000 | Cc1cc(-n2cc(C(=O)Nc3c[nH]c4cc(F)c(F)cc34)nn2)cnc1OCC(F)(F)F [Compound 165, N-(5,6-difluoro-1H-indol-3-yl)-1-(5-methyl-6-(2,2,2-trifluoroethoxy)pyridin-3-yl)-1H-1,2,3-triazole-4-carboxamide] |
| 40 to 200 | Cn1nc(C(=O)Nc2c[nH]c3cc(F)c(Cl)cc23)cc1Cc1ccc(C(F)(F)F)cc1 [Compound 162, N-(5-chloro-6-fluoro-1H-indol-3-yl)-1-methyl-5-(4-(trifluoromethyl)benzyl)-1H-pyrazole-3-carboxamide] |
| 200 to 1000 | O=C(Nc1c[nH]c2cc(F)c(F)cc12)c1cn(-c2ccc(C(F)(F)F)cc2)nn1 [Compound 106, N-(5,6-difluoro-1H-indol-3-yl)-1-(4-(trifluoromethyl)phenyl)-1H-1,2,3-triazole-4-carboxamide] |
| 40 to 200 | O=C(Nc1c[nH]c2cc(F)c(F)cc12)c1cc(CCc2ccc(C(F)(F)F)cc2)no1 [Compound 150, N-(5,6-difluoro-1H-indol-3-yl)-3-(4-(trifluoromethyl)phenethyl)isoxazole-5-carboxamide] |
| 1000 to 5000 | O=C(Nc1c[nH]c2cc(F)c(F)cc12)c1cn(-c2ccnc(COCC(F)(F)F)c2)nn1 [Compound 156, N-(5,6-difluoro-1H-indol-3-yl)-1-(2-((2,2,2-trifluoroethoxy)methyl)pyridin-4-yl)-1H-1,2,3-triazole-4-carboxamide] |
| 1000 to 5000 | O=C(Nc1c[nH]c2cc(F)c(F)cc12)c1csc(-c2ccc(OC(F)(F)F)cc2)n1 [Compound 177, N-(5,6-difluoro-1H-indol-3-yl)-2-(4-(trifluoromethoxy)phenyl)thiazole-4-carboxamide] |
| 200 to 1000 | O=C(Nc1c[nH]c2ccc(Cl)cc12)c1cn(-c2cnc(OCC(F)(F)F)c(F)c2)nn1 [Compound 159, N-(5-chloro-1H-indol-3-yl)-1-(5-fluoro-6-(2,2,2-trifluoroethoxy)pyridin-3-yl)-1H-1,2,3-triazole-4-carboxamide] |
